Experimental data taken from PubChem BioAssay (NCI).
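Grown in 96-well plates, cells were treated for 48 hours with each compound at five concentrations. Insufficient inhibition: endpoint recorded as highest concentration tested. TGI: concentration producing complete growth inhibition.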

What was measured:
Test in all cases: inhibition of tumour cell growth, NCI panel, 48 h
786-0 renal = tested on: 786-0 renal
A498 renal = tested on: A498 renal
A549 NSCLC = tested on: A549 NSCLC
ACHN renal = tested on: ACHN renal
BT-549 breast = tested on: BT-549 breast
CAKI-1 renal = tested on: CAKI-1 renal
CCRF-CEM leukemia = tested on: CCRF-CEM leukemia
COLO 205 colon = tested on: COLO 205 colon
DU-145 prostate = tested on: DU-145 prostate
EKVX NSCLC = tested on: EKVX NSCLC
HCT-116 colon = tested on: HCT-116 colon
HCT-15 colon = tested on: HCT-15 colon
HL-60(TB) leukemia = tested on: HL-60(TB) leukemia
HOP-62 NSCLC = tested on: HOP-62 NSCLC
HOP-92 NSCLC = tested on: HOP-92 NSCLC
HS 578T breast = tested on: HS 578T breast
HT29 colon = tested on: HT29 colon
IGROV1 ovarian = tested on: IGROV1 ovarian
K-562 leukemia = tested on: K-562 leukemia
KM12 colon = tested on: KM12 colon
LOX IMVI melanoma = tested on: LOX IMVI melanoma
M14 melanoma = tested on: M14 melanoma
MALME-3M melanoma = tested on: MALME-3M melanoma
MCF7 breast = tested on: MCF7 breast
MDA-MB-231 breast = tested on: MDA-MB-231 breast
MDA-MB-435 = tested on: MDA-MB-435
MDA-N = tested on: MDA-N
MOLT-4 leukemia = tested on: MOLT-4 leukemia
NCI-H226 lung = tested on: NCI-H226 lung
NCI-H23 lung = tested on: NCI-H23 lung
NCI-H460 lung = tested on: NCI-H460 lung
NCI-H522 lung = tested on: NCI-H522 lung
NCI/ADR-RES ovarian = tested on: NCI/ADR-RES ovarian
OVCAR-3 ovarian = tested on: OVCAR-3 ovarian
OVCAR-4 ovarian = tested on: OVCAR-4 ovarian
OVCAR-5 ovarian = tested on: OVCAR-5 ovarian
OVCAR-8 ovarian = tested on: OVCAR-8 ovarian
PC-3 prostate = tested on: PC-3 prostate
RPMI-8226 leukemia = tested on: RPMI-8226 leukemia
RXF 393 renal = tested on: RXF 393 renal
SF-268 CNS = tested on: SF-268 CNS
SF-295 CNS = tested on: SF-295 CNS
SF-539 CNS = tested on: SF-539 CNS
SK-MEL-2 melanoma = tested on: SK-MEL-2 melanoma
SK-MEL-28 melanoma = tested on: SK-MEL-28 melanoma
SK-MEL-5 melanoma = tested on: SK-MEL-5 melanoma
SK-OV-3 ovarian = tested on: SK-OV-3 ovarian
SN12C renal = tested on: SN12C renal
SNB-19 CNS = tested on: SNB-19 CNS
SNB-75 CNS = tested on: SNB-75 CNS
SR leukemia = tested on: SR leukemia
SW-620 colon = tested on: SW-620 colon
T-47D breast = tested on: T-47D breast
TK-10 renal = tested on: TK-10 renal
U251 CNS = tested on: U251 CNS
UACC-257 melanoma = tested on: UACC-257 melanoma
UACC-62 melanoma = tested on: UACC-62 melanoma
UO-31 renal = tested on: UO-31 renal
HCC-2998 colon = tested on: HCC-2998 colon

## COc1cc2c(cc1OC)C13CCN4C=C5CCOC6CC(=O)N2C1C6C5CC43 (centres undefined)
786-0 renal
  TGI: > 100 µM
A498 renal
  TGI: > 100 µM
A549 NSCLC
  TGI: > 100 µM
ACHN renal
  TGI: > 100 µM
BT-549 breast
  TGI: > 100 µM
CAKI-1 renal
  TGI: > 100 µM
CCRF-CEM leukemia
  TGI: > 100 µM
COLO 205 colon
  TGI: > 100 µM
DU-145 prostate
  TGI: > 100 µM
EKVX NSCLC
  TGI: > 100 µM
HCT-116 colon
  TGI: > 100 µM
HCT-15 colon
  TGI: > 100 µM
HL-60(TB) leukemia
  TGI: > 100 µM
HOP-62 NSCLC
  TGI: > 100 µM
HOP-92 NSCLC
  TGI: > 100 µM
HS 578T breast
  TGI: > 100 µM
HT29 colon
  TGI: > 100 µM
IGROV1 ovarian
  TGI: > 100 µM
K-562 leukemia
  TGI: > 100 µM
KM12 colon
  TGI: > 100 µM
LOX IMVI melanoma
  TGI: > 100 µM
M14 melanoma
  TGI: > 100 µM
MALME-3M melanoma
  TGI: > 100 µM
MCF7 breast
  TGI: > 100 µM
MDA-MB-231 breast
  TGI: > 100 µM
MDA-MB-435
  TGI: > 100 µM
MDA-N
  TGI: > 100 µM
MOLT-4 leukemia
  TGI: > 100 µM
NCI-H226 lung
  TGI: > 100 µM
NCI-H23 lung
  TGI: > 100 µM
NCI-H460 lung
  TGI: > 100 µM
NCI-H522 lung
  TGI: > 100 µM
NCI/ADR-RES ovarian
  TGI: > 100 µM
OVCAR-3 ovarian
  TGI: > 100 µM
OVCAR-4 ovarian
  TGI: > 100 µM
OVCAR-5 ovarian
  TGI: > 100 µM
OVCAR-8 ovarian
  TGI: > 100 µM
PC-3 prostate
  TGI: > 100 µM
RPMI-8226 leukemia
  TGI: > 100 µM
RXF 393 renal
  TGI: > 100 µM
SF-268 CNS
  TGI: > 100 µM
SF-295 CNS
  TGI: > 100 µM
SF-539 CNS
  TGI: > 100 µM
SK-MEL-2 melanoma
  TGI: > 100 µM
SK-MEL-28 melanoma
  TGI: > 100 µM
SK-MEL-5 melanoma
  TGI: > 100 µM
SK-OV-3 ovarian
  TGI: > 100 µM
SN12C renal
  TGI: > 100 µM
SNB-19 CNS
  TGI: > 100 µM
SNB-75 CNS
  TGI: > 100 µM
SR leukemia
  TGI: > 100 µM
SW-620 colon
  TGI: > 100 µM
T-47D breast
  TGI: > 100 µM
TK-10 renal
  TGI: > 100 µM
U251 CNS
  TGI: > 100 µM
UACC-257 melanoma
  TGI: > 100 µM
UACC-62 melanoma
  TGI: > 100 µM
UO-31 renal
  TGI: > 100 µM

## O=C1C(N2CCCC2)=CC(=O)c2c(O)c(N3CCCC3)c(Cl)c(O)c21
786-0 renal
  TGI: > 10 µM
A498 renal
  TGI: > 10 µM
A549 NSCLC
  TGI: > 10 µM
ACHN renal
  TGI: > 10 µM
BT-549 breast
  TGI: > 10 µM
CAKI-1 renal
  TGI: > 10 µM
CCRF-CEM leukemia
  TGI: > 10 µM
COLO 205 colon
  TGI: > 10 µM
DU-145 prostate
  TGI: > 10 µM
EKVX NSCLC
  TGI: > 10 µM
HCC-2998 colon
  TGI: > 10 µM
HCT-116 colon
  TGI: > 10 µM
HL-60(TB) leukemia
  TGI: > 10 µM
HOP-62 NSCLC
  TGI: > 10 µM
HOP-92 NSCLC
  TGI: > 10 µM
HS 578T breast
  TGI: > 10 µM
HT29 colon
  TGI: > 10 µM
IGROV1 ovarian
  TGI: > 10 µM
K-562 leukemia
  TGI: > 10 µM
KM12 colon
  TGI: > 10 µM
LOX IMVI melanoma
  TGI: > 10 µM
M14 melanoma
  TGI: > 10 µM
MALME-3M melanoma
  TGI: > 10 µM
MCF7 breast
  TGI: > 10 µM
MDA-MB-231 breast
  TGI: > 10 µM
MDA-MB-435
  TGI: > 10 µM
MDA-N
  TGI: > 10 µM
MOLT-4 leukemia
  TGI: > 10 µM
NCI-H226 lung
  TGI: > 10 µM
NCI-H23 lung
  TGI: > 10 µM
NCI-H460 lung
  TGI: > 10 µM
NCI-H522 lung
  TGI: > 10 µM
NCI/ADR-RES ovarian
  TGI: > 10 µM
OVCAR-3 ovarian
  TGI: > 10 µM
OVCAR-4 ovarian
  TGI: > 10 µM
PC-3 prostate
  TGI: > 10 µM
RPMI-8226 leukemia
  TGI: > 10 µM
RXF 393 renal
  TGI: > 10 µM
SF-268 CNS
  TGI: > 10 µM
SF-295 CNS
  TGI: > 10 µM
SF-539 CNS
  TGI: > 10 µM
SK-MEL-2 melanoma
  TGI: > 10 µM
SK-MEL-28 melanoma
  TGI: > 10 µM
SK-MEL-5 melanoma
  TGI: > 10 µM
SK-OV-3 ovarian
  TGI: > 10 µM
SN12C renal
  TGI: > 10 µM
SNB-19 CNS
  TGI: > 10 µM
SNB-75 CNS
  TGI: > 10 µM
SR leukemia
  TGI: > 10 µM
SW-620 colon
  TGI: > 10 µM
T-47D breast
  TGI: > 10 µM
TK-10 renal
  TGI: > 10 µM
U251 CNS
  TGI: > 10 µM
UACC-257 melanoma
  TGI: > 10 µM
UACC-62 melanoma
  TGI: > 10 µM
UO-31 renal
  TGI: > 10 µM
